Test results as given in patent US10934304B2, “Spirocyclic compounds” (Recurium IP Holdings, LLC, priority 2016, dated 2021).

Key:
[1] = tested on: A375 (melanoma) cells; test: Proliferation Assay (CellTiter-Glo); type: cell-based; settings: Homo sapiens, A-375, 72 h, 3 days incubation, CellTiter-Glo luminescence
Summary of the method: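 A375 cells in RPMI-1640 with 10% FBS, plated overnight, then exposed to 10-point 3-fold serial compound dilutions for 3 days at 37° C, 5% CO2. Viability read by CellTiter-Glo luminescence.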

[2] = target: ERK2 (Homo sapiens (Human), UniProt P28482); test: Active ERK1 and ERK2 Kinase Assay (Mobility Shift Assay); type: biochemical; settings: activated ERK2, Mobility Shift Assay
Summary of the method: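 Mobility shift assay: compound preincubated with activated kinase 30 min at rt in 20 mM HEPES pH 7.5, 0.01% Triton X-100, 2 mM DTT. Reaction started with fluorescent substrate, ATP and metal, run 1 h at rt; activity taken as product ratio P/(P+S) after LabChip peptide separation.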

Sequence of ERK2 (P28482 whole entry): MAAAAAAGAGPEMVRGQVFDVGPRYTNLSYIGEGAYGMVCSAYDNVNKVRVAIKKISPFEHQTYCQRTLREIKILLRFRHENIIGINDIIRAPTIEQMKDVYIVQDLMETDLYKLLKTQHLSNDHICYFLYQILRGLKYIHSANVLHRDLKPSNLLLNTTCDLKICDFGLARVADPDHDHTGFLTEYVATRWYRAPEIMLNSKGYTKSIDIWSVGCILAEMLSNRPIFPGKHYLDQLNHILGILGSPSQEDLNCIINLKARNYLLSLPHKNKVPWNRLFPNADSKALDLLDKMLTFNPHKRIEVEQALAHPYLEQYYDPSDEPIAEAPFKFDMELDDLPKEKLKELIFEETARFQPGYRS

SMILES | IC50 [1] | IC50 [2]
Cn1cnc(-c2ccc(C3=CCN(C(=O)CN4CC[C@]5(CCN(c6ccc7[nH]nc(C8CCS(=O)(=O)CC8)c7c6)C5=O)C4)CC3)cc2)n1 [Example 7, (S)-7-(2-(4-(4-(1-Methyl-1H-1,2,4-triazol-3-yl)phenyl)-5,6-dihydropyridin-1(2H)-yl)-2-oxoethyl)-2-(3-(tetrahydro-2H-thiopyran 1,1-dioxide-4-yl)-1H-indazol-5-yl)-2,7-diazaspiro[4.4]nonan-1-one] | ≥ 1000 nM | ≤ 50 nM
Cc1ccc(-c2n[nH]c3ccc(N4CC[C@]5(CCN(CC(=O)N6CC=C(c7ccc(-c8nn(C)c(=O)o8)cc7)CC6)C5)C4=O)nc23)cn1 [Example 35] | ≤ 500 nM | ≤ 50 nM
CC(C)Oc1ccc(-c2n[nH]c3ccc(N4CC[C@]5(CCN(CC(=O)N6CC=C(c7ccc(-c8ncn(C)n8)cc7)CC6)C5)C4=O)c(F)c23)cn1 [Example 1, (S)-2-(4-Fluoro-3-(6-isopropoxypyridin-3-yl)-1H-indazol-5-yl)-7-(2-(4-(4-(1-methyl-1H-1,2,4-triazol-3-yl)phenyl)-5,6-dihydropyridin-1(2H)-yl)-2-oxoethyl)-2,7-diazaspiro[4.4]nonan-1-one] | ≥ 1000 nM | ≥ 250 nM
